According to PubChem BioAssay (NCI):
“And” between values parts separate entries of the source, which are not always exact repeats. Equal entries are not always repeated.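 The compound was tested at five concentrations on cells cultured in 96-well plates, with a 48-hour exposure period. Abbreviation: GI50, concentration required for 50% inhibition of growth. The concentration for full growth arrest is given as TGI.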

How the values were obtained:
Experiment in all cases: growth of human tumour cells (NCI), 48 h
IGROV1 ovarian = test system: IGROV1 ovarian
SR leukemia = test system: SR leukemia
HS 578T breast = test system: HS 578T breast
MDA-MB-231 breast = test system: MDA-MB-231 breast
DMS 114 small cell lung = test system: DMS 114 small cell lung
M19-MEL melanoma = test system: M19-MEL melanoma
SNB-78 CNS = test system: SNB-78 CNS
LXFL 529 NSCLC = test system: LXFL 529 NSCLC
DLD-1 colon = test system: DLD-1 colon
KM20L2 colon = test system: KM20L2 colon

CCCCC(CC)COC(=O)C[N+](C)(C)CCOC(c1ccccc1)c1ccccc1 (stereo not drawn)
GI50 (IGROV1 ovarian): 1.82 µM
TGI (IGROV1 ovarian): 3.58 µM
GI50 (SR leukemia): 2.18 µM
TGI (SR leukemia): 5.16 µM
GI50 (HS 578T breast): 2.08 µM
TGI (HS 578T breast): 6.68 µM
GI50 (MDA-MB-231 breast): 1.83 µM
TGI (MDA-MB-231 breast): 3.88 µM

Nc1ccccc1/C(O)=C1/CCOC1=O
TGI (IGROV1 ovarian): > 100 µM
TGI (DMS 114 small cell lung): > 100 µM
TGI (M19-MEL melanoma): > 100 µM
TGI (SR leukemia): > 100 µM
TGI (SNB-78 CNS): > 100 µM
TGI (LXFL 529 NSCLC): > 100 µM
TGI (DLD-1 colon): > 100 µM

N#Cc1cc(-c2cc3ccccc3o2)oc1N
GI50 (IGROV1 ovarian): 1.76 µM
TGI (IGROV1 ovarian): 6.35 µM
GI50 (SR leukemia): 0.764 µM
TGI (SR leukemia): 3.1 µM
GI50 (HS 578T breast): 0.401 µM
TGI (HS 578T breast): 3.41 µM
GI50 (MDA-MB-231 breast): 1.89 µM
TGI (MDA-MB-231 breast): 4.76 µM

Cc1nnc(NS(=O)(=O)c2ccc(N=Nc3cc(N=Nc4ccc(S(=O)(=O)Nc5nnc(C)s5)cc4)c4c(NC(=O)C(Cl)Cl)cccc4c3OC(=O)C(Cl)Cl)cc2)s1 (tested in a mixture with another compound)
TGI (IGROV1 ovarian): 97.5 µM
TGI (DMS 114 small cell lung): 62.5 µM
TGI (M19-MEL melanoma): 57.2 µM
TGI (KM20L2 colon): > 100 µM
TGI (SNB-78 CNS): > 100 µM
TGI (LXFL 529 NSCLC): > 100 µM
TGI (DLD-1 colon): 42.9 µM

Cc1cc(C(=O)Nc2ccc3cc(CN4CCOCC4)ccc3n2)c(C)n1-c1ccccc1
GI50 (IGROV1 ovarian): 3.92 µM
TGI (IGROV1 ovarian): 44.8 µM
GI50 (SR leukemia): 2.6 µM
TGI (SR leukemia): > 74.8 µM
GI50 (HS 578T breast): 4 µM
TGI (HS 578T breast): 44.6 µM
GI50 (MDA-MB-231 breast): 8.09 µM
TGI (MDA-MB-231 breast): 51.8 µM

O=S(=O)(c1ccc(NC(=S)NC23CC4CC(CC(C4)C2)C3)cc1)N1CCCCC1
GI50 (IGROV1 ovarian): 4.63 µM
TGI (IGROV1 ovarian): > 100 µM
GI50 (SR leukemia): 2.69 µM
TGI (SR leukemia): > 100 µM
GI50 (HS 578T breast): 4.87 µM
TGI (HS 578T breast): > 100 µM
GI50 (MDA-MB-231 breast): 2.41 µM
TGI (MDA-MB-231 breast): 5.6 µM

[N-]=[N+]=C1C(=O)NN=C1c1ccccc1
TGI (IGROV1 ovarian): > 100 µM
TGI (DMS 114 small cell lung): > 100 µM
TGI (M19-MEL melanoma): > 100 µM
TGI (SR leukemia): > 100 µM
TGI (KM20L2 colon): > 100 µM
TGI (LXFL 529 NSCLC): > 100 µM
TGI (DLD-1 colon): > 100 µM

Cc1cc(NC(=S)SCc2ccc(F)cc2)c([N+](=O)[O-])cc1C
TGI (SR leukemia): 43.9 µM
TGI (HS 578T breast): 46.6 µM
TGI (MDA-MB-231 breast): 34.6 µM

COc1ccc(C(=O)c2cc(C)c(OC)c(C)c2)cc1OC(=O)CCl
GI50 (IGROV1 ovarian): 0.0352 µM
TGI (IGROV1 ovarian): > 100 µM
GI50 (SR leukemia): < 0.01 µM
TGI (SR leukemia): > 100 µM
GI50 (HS 578T breast): < 0.01 µM
TGI (HS 578T breast): 98.5 µM
GI50 (MDA-MB-231 breast): < 0.0112 µM
TGI (MDA-MB-231 breast): > 100 µM

NC(=O)c1cc(Cl)ccc1NC(=O)/C=C/c1ccccc1
GI50 (IGROV1 ovarian): 3.03 µM
TGI (IGROV1 ovarian): > 100 µM
GI50 (HS 578T breast): 3.17 µM
TGI (HS 578T breast): > 24.5 µM
GI50 (MDA-MB-231 breast): 2.6 µM
TGI (MDA-MB-231 breast): > 100 µM

O=C1/C(=C(/c2ccccc2)N2CCOCC2)Cc2ccccc21
GI50 (IGROV1 ovarian): 1.46 µM
TGI (IGROV1 ovarian): 3.61 µM
GI50 (HS 578T breast): 2.63 µM
TGI (HS 578T breast): 12.9 µM
GI50 (MDA-MB-231 breast): 2.3 µM
TGI (MDA-MB-231 breast): 5.48 µM

CC1=CC(=O)C=CC1=O
GI50 (IGROV1 ovarian): 18.1 µM and 18.2 µM
TGI (IGROV1 ovarian): 43 µM
GI50 (SR leukemia): 1.63 µM and 9.34 µM
GI50 (HS 578T breast): 14.4 µM and 24.9 µM
TGI (HS 578T breast): 47.1 µM and 246 µM
GI50 (MDA-MB-231 breast): 16.2 µM
TGI (MDA-MB-231 breast): 30.4 µM

CCCC(CCC)NCC(O)c1cc(-c2ccc(C(F)(F)F)cc2)nc(C(F)(F)F)c1 (stereo not drawn)
GI50 (IGROV1 ovarian): 2.09 µM
TGI (IGROV1 ovarian): 4.09 µM
GI50 (SR leukemia): 1.4 µM
TGI (SR leukemia): 3.27 µM
GI50 (HS 578T breast): 1.69 µM
TGI (HS 578T breast): 4.14 µM
GI50 (MDA-MB-231 breast): 1.53 µM
TGI (MDA-MB-231 breast): 3.17 µM

CC12OC(C(=O)C13CC3)C1C(=O)c3ccc4c(ccc5ccccc54)c3C(=O)C12 (stereo not drawn)
GI50 (IGROV1 ovarian): 28.9 µM
TGI (IGROV1 ovarian): > 100 µM
GI50 (HS 578T breast): 42.2 µM
TGI (HS 578T breast): > 100 µM
GI50 (MDA-MB-231 breast): 13 µM
TGI (MDA-MB-231 breast): 77.9 µM

Cc1cc(C)c(NC(=O)c2sc3nc4c(cc3c2N)C(=O)CCC4)c(C)c1
GI50 (IGROV1 ovarian): 5.58 µM
TGI (IGROV1 ovarian): > 100 µM
GI50 (SR leukemia): 3 µM
TGI (SR leukemia): > 55.3 µM
GI50 (HS 578T breast): 4.51 µM
TGI (HS 578T breast): > 100 µM
GI50 (MDA-MB-231 breast): 7.26 µM
TGI (MDA-MB-231 breast): > 100 µM

CN(C)CCNc1ccc(CO)c2oc3ccc(O)cc3c(=O)c12
TGI (IGROV1 ovarian): 57.2 µM
TGI (SR leukemia): 4.36 µM
TGI (HS 578T breast): 33.4 µM
TGI (MDA-MB-231 breast): 37.7 µM

Cc1ccc(NC(=O)c2cccc(C(C)(C)C#N)c2)cc1Nc1ccc2ncn(C)c(=O)c2c1
GI50 (IGROV1 ovarian): 1.49 µM
TGI (IGROV1 ovarian): > 100 µM
GI50 (SR leukemia): 4.79 µM
TGI (SR leukemia): > 100 µM
GI50 (HS 578T breast): 8.65 µM
TGI (HS 578T breast): > 100 µM
GI50 (MDA-MB-231 breast): < 0.0239 µM
TGI (MDA-MB-231 breast): > 29 µM

Cc1cc2ncnn2cc1Nc1ncc2c(n1)n(C1CCOCC1)c(=O)n2C
GI50 (IGROV1 ovarian): 3.19 µM
TGI (IGROV1 ovarian): 25.5 µM
GI50 (SR leukemia): 3.42 µM
TGI (SR leukemia): 52.9 µM
GI50 (HS 578T breast): 2.84 µM
TGI (HS 578T breast): 23.4 µM
GI50 (MDA-MB-231 breast): 5.3 µM
TGI (MDA-MB-231 breast): > 100 µM

Cc1ccc(N=C/C=C(\Nc2ccc(C)cc2)c2ccc(Cl)cc2)cc1
GI50 (SR leukemia): 2.32 µM
TGI (SR leukemia): > 100 µM
GI50 (HS 578T breast): 15.3 µM
TGI (HS 578T breast): 41.7 µM
GI50 (MDA-MB-231 breast): 11.2 µM
TGI (MDA-MB-231 breast): 46.6 µM

COc1ccc(C(=O)c2cc(C)c(OC)c(C)c2)c(OC)c1O
GI50 (IGROV1 ovarian): 0.672 µM
TGI (IGROV1 ovarian): > 100 µM
TGI (SR leukemia): > 100 µM
GI50 (HS 578T breast): 0.0274 µM
TGI (HS 578T breast): > 100 µM
GI50 (MDA-MB-231 breast): 0.0587 µM
TGI (MDA-MB-231 breast): > 100 µM

COCC[C@H]1CCC/C=C/[C@@H]2C[C@H](O)C[C@H]2[C@H](O)/C=C/C(=O)O1
GI50 (IGROV1 ovarian): 0.331 µM
TGI (IGROV1 ovarian): > 29 µM
GI50 (SR leukemia): 0.141 µM
GI50 (HS 578T breast): 0.0506 µM
TGI (HS 578T breast): > 100 µM
GI50 (MDA-MB-231 breast): 0.131 µM
TGI (MDA-MB-231 breast): 0.322 µM

CN(Cc1ccccc1)C(=O)c1ccccc1C(=O)O
TGI (IGROV1 ovarian): > 100 µM
TGI (DMS 114 small cell lung): > 100 µM
TGI (M19-MEL melanoma): > 100 µM
TGI (SR leukemia): > 100 µM
TGI (KM20L2 colon): > 100 µM
TGI (LXFL 529 NSCLC): > 100 µM
TGI (DLD-1 colon): > 100 µM

Nc1ccccc1C#C/C=C\C#Cc1ccccc1N
GI50 (IGROV1 ovarian): 34.6 µM
TGI (IGROV1 ovarian): > 100 µM
GI50 (MDA-MB-231 breast): 12.5 µM
TGI (MDA-MB-231 breast): 30.4 µM

COC(=O)Nc1nc2ccc(C3(c4ccc(F)cc4)OCCO3)cc2[nH]1
GI50 (IGROV1 ovarian): 1.29 µM
TGI (IGROV1 ovarian): > 100 µM
GI50 (SR leukemia): 0.122 µM
TGI (SR leukemia): > 100 µM
GI50 (HS 578T breast): 0.315 µM
TGI (HS 578T breast): > 69.9 µM
GI50 (MDA-MB-231 breast): 0.598 µM
TGI (MDA-MB-231 breast): 99.5 µM

O=C(Nc1n[nH]c2cc(-c3ccccc3)ccc12)C1CC1
GI50 (IGROV1 ovarian): 19.6 µM
TGI (IGROV1 ovarian): > 25 µM
GI50 (SR leukemia): 3.31 µM
TGI (SR leukemia): > 25 µM
GI50 (HS 578T breast): 18.9 µM
TGI (HS 578T breast): > 25 µM
GI50 (MDA-MB-231 breast): 14.7 µM
TGI (MDA-MB-231 breast): > 25 µM

c1cnn(CN(Cn2cccn2)Cn2cccn2)c1
TGI (DMS 114 small cell lung): > 100 µM
TGI (M19-MEL melanoma): > 100 µM
TGI (SR leukemia): > 100 µM
TGI (KM20L2 colon): > 100 µM
TGI (SNB-78 CNS): > 100 µM
TGI (DLD-1 colon): > 100 µM
